Reference: PubChem BioAssay (NCI)
Several values for one entry are separate records, joined by “and”; a condition that tells them apart may be missing. Equal entries are not always repeated.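 The compound was tested at five concentrations on cells cultured in 96-well plates, with a 48-hour exposure period. GI50 = concentration required for 50% inhibition of growth. TGI: concentration producing complete growth inhibition.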

Assays:
Test in all cases: DTP human tumour cell line panel, 48 h
HL-60(TB) leukemia = system: HL-60(TB) leukemia
786-0 renal = system: 786-0 renal
SK-OV-3 ovarian = system: SK-OV-3 ovarian
HCT-116 colon = system: HCT-116 colon
SK-MEL-28 melanoma = system: SK-MEL-28 melanoma
RXF 393 renal = system: RXF 393 renal
HT29 colon = system: HT29 colon
SR leukemia = system: SR leukemia
OVCAR-4 ovarian = system: OVCAR-4 ovarian
DU-145 prostate = system: DU-145 prostate

SMILES	GI50 (HL-60(TB) leukemia)	TGI (HL-60(TB) leukemia)	GI50 (786-0 renal)	TGI (786-0 renal)	GI50 (SK-OV-3 ovarian)	TGI (SK-OV-3 ovarian)	GI50 (HCT-116 colon)	TGI (HCT-116 colon)	GI50 (SK-MEL-28 melanoma)	TGI (SK-MEL-28 melanoma)	GI50 (RXF 393 renal)	TGI (RXF 393 renal)	GI50 (HT29 colon)	TGI (HT29 colon)	GI50 (SR leukemia)	TGI (SR leukemia)	GI50 (OVCAR-4 ovarian)	TGI (OVCAR-4 ovarian)	GI50 (DU-145 prostate)	TGI (DU-145 prostate)
Nc1ncnc2[nH]ncc12	0.361 µM	2.56 µM	0.623 µM	21.2 µM	0.315 µM	4.71 µM	0.511 µM	10.5 µM	2.77 µM	99 µM	0.86 µM	> 28.6 µM	1.83 µM	> 94.5 µM	0.445 µM	> 100 µM	0.277 µM	37.9 µM	0.358 µM	18 µM
COc1ccc2cc(-c3ccoc(=O)c3-c3cc(OC)c(OC)c(OC)c3)ccc2c1	0.0353 µM	0.793 µM	0.201 µM	> 100 µM	0.389 µM	> 100 µM	0.044 µM		0.683 µM	> 100 µM	0.028 µM	> 100 µM	0.0383 µM	22.5 µM	0.0301 µM		1.16 µM	> 100 µM	0.188 µM	> 100 µM
CN(C)c1ccc(/C=C\c2cccc[n+]2C)cc1	3.09 µM	> 100 µM	16.3 µM	> 100 µM	4.85 µM	52 µM	4.16 µM	> 100 µM	14.8 µM	81.7 µM	18.2 µM	> 100 µM	5.01 µM	> 100 µM	24.8 µM	> 100 µM	4.28 µM	62.5 µM	20.6 µM	> 100 µM
O=C(O)C/C=C/CC(=O)O		> 100 µM		> 100 µM		> 100 µM		> 100 µM		> 100 µM		> 100 µM		> 100 µM		> 100 µM		> 100 µM		> 100 µM
C=CC(=O)N(C)[C@H]1C[C@H]2OC(C)(C1OC)n1c3ccccc3c3c4c(c5c6ccccc6n2c5c31)C(=O)NC4 (stereo partly drawn)	0.129 µM	1.59 µM	0.0872 µM	0.69 µM	0.0955 µM	0.318 µM	0.0681 µM	0.672 µM	0.369 µM	2.08 µM	0.0221 µM	0.157 µM	0.178 µM	2.7 µM	0.0983 µM	0.776 µM	0.0939 µM	> 50 µM	0.124 µM	18.7 µM
O=[N+]([O-])c1cccc(-c2nc3sccn3c2-c2ccnc(NCCCNS(=O)(=O)c3cccc(F)c3)n2)c1	2.97 µM	8.57 µM	7.97 µM	45.6 µM	5.82 µM	30.5 µM	2.74 µM	> 100 µM	2.63 µM	7.76 µM	8.13 µM	41.6 µM	3.12 µM	> 100 µM	3.1 µM	> 100 µM	1.64 µM	7.64 µM	2.6 µM	12.9 µM
Cc1cc(N/N=C/c2nc(-c3ccc(Br)cc3)oc2C)c2cc(Cl)ccc2n1	> 100 µM	> 100 µM	> 100 µM	> 100 µM	> 100 µM	> 100 µM	> 100 µM	> 100 µM	> 100 µM	> 100 µM	> 100 µM	> 100 µM	> 100 µM	> 100 µM	> 100 µM	> 100 µM	> 100 µM	> 100 µM	> 100 µM	> 100 µM
O=c1[nH]c2ccccc2nc1-c1c[nH]c2ccccc12	> 100 µM	> 100 µM	> 100 µM	> 100 µM	> 100 µM	> 100 µM	> 100 µM	> 100 µM	> 100 µM	> 100 µM	7.41 µM	> 100 µM	> 100 µM	> 100 µM	> 100 µM	> 100 µM	> 100 µM	> 100 µM	> 100 µM	> 100 µM
N#C/C(=C\c1c(-c2ccccc2)[nH]c2ccccc12)S(=O)(=O)c1ccccc1	1.27 µM	5.34 µM	8.46 µM	> 100 µM	6.39 µM	> 71.5 µM	1.72 µM	> 76.6 µM	5.97 µM	28.8 µM	3.43 µM	> 27.4 µM	0.594 µM	> 41.5 µM	17.3 µM	> 100 µM	5.47 µM	> 100 µM	2.4 µM	20.1 µM
COC(=O)Cn1c2c(c3c(O)cccc31)C(=O)c1ccccc1-2	> 100 µM	> 100 µM	> 100 µM	> 100 µM	> 100 µM	> 100 µM	> 100 µM	> 100 µM	> 100 µM	> 100 µM	> 100 µM	> 100 µM	> 100 µM	> 100 µM	28.8 µM	> 100 µM	> 100 µM	> 100 µM	> 100 µM	> 100 µM
COc1cc2nc(N3CCCC3)nc(NCC3CCCCC3)c2cc1OC	0.505 µM	2.21 µM	1.47 µM	3.11 µM	1.75 µM	3.24 µM	0.805 µM	2.21 µM	1.55 µM	2.91 µM	1.07 µM	2.49 µM	0.435 µM	1.69 µM	0.254 µM	1.08 µM	1.25 µM	2.71 µM	1.51 µM	2.92 µM
CN(C)CCCN1c2ccccc2CCc2ccc(Cl)cc21	3.63 µM	13.2 µM	5.5 µM	19.2 µM	4.49 µM	15.4 µM	3.53 µM	12.3 µM	1.61 µM	3.07 µM	2 µM	7.66 µM	3.38 µM	11.6 µM	2.08 µM	5.11 µM	3.64 µM	16.4 µM	10.8 µM	23.1 µM
CC1=C(CCC(C)N(C)Cc2ccc(OCCCN3CCCC3)cc2)C(C)(C)CCC1 (stereo not drawn)	3.87 µM	20.4 µM	2.59 µM	11.7 µM	11.4 µM	23.8 µM	2.82 µM	12.1 µM	1.68 µM	3.5 µM	2.59 µM	10.2 µM	0.764 µM	6.94 µM	0.744 µM	3.89 µM	7.76 µM	21.4 µM	10.8 µM	23.4 µM
COc1ccc(C(OCC2OC(n3ccc(NC(=O)c4ccccc4)nc3=O)C(O)C2O)(c2ccccc2)c2ccccc2)cc1 (stereo not drawn)		4.36 µM		3.69 µM		20.6 µM		3.23 µM		7.95 µM		10.8 µM		3.04 µM		4.96 µM		6.04 µM		10.3 µM
O=S(=O)(NCCNC/C=C/c1ccc(Br)cc1)c1cccc2cnccc12	> 24.6 µM and 9.48 µM	> 49.4 µM and 28.1 µM	4.22 µM and 9.27 µM	19.8 µM and 21.9 µM	7.26 µM and 11.7 µM	21.1 µM and 25.1 µM	7.6 µM and 11.2 µM	22 µM and 24 µM	7.33 µM and 11.2 µM	20 µM and 25.4 µM	3.37 µM and 9.08 µM	15.6 µM and 22.3 µM	5.44 µM and 13.7 µM	18.9 µM and 28.8 µM	13.6 µM	> 40.9 µM and 34.6 µM	5.51 µM and 7.36 µM	18.6 µM and 23.6 µM	12.4 µM and 14.5 µM	25.1 µM and 27.6 µM
CC(C)(C)c1ccc(OCCCCCCN2CCNCC2)cc1	1.98 µM	4.32 µM	3.34 µM	11.6 µM	10.9 µM	24.7 µM	3.18 µM	13.9 µM	3.23 µM	11.4 µM	1.91 µM	4.12 µM	2.64 µM	10.5 µM	2.04 µM	5.85 µM	9.46 µM	23.9 µM	10.5 µM	23.2 µM
CC(CN1CCN(CCOCCO)CC1)CN1c2ccccc2Sc2ccc(Cl)cc21 (stereo not drawn)	1.76 µM	4.01 µM	4.79 µM	18 µM	8.87 µM	21.8 µM	2.03 µM	4.35 µM	1.75 µM	3.22 µM	1.58 µM	4.85 µM	1.79 µM	3.36 µM	3.58 µM	16.5 µM	4.22 µM	16 µM	5.05 µM	17 µM
COc1ccc(-c2cc(-c3ccccc3)nc(SCCCC(=O)NO)n2)cc1	1.18 µM	7 µM	0.573 µM	3.49 µM	1.74 µM	5.54 µM	0.531 µM	12.7 µM	1.25 µM	3.12 µM	0.338 µM	1.4 µM	1.64 µM	10.9 µM	0.363 µM	> 33.3 µM	1.26 µM	9.01 µM	1.06 µM	9.58 µM
O[C@H]1CO[C@H]2[C@@H]1OC[C@@H]2Oc1ccc(Nc2ccnc(Nc3ccc(O[C@H]4CO[C@H]5[C@@H]4OC[C@@H]5O)c(Cl)c3)n2)cc1Cl	1.57 µM	4.7 µM	2.98 µM	15.1 µM	2.53 µM	10 µM	2.24 µM	9.12 µM	3.04 µM	11.6 µM	1.5 µM	3.8 µM	2.48 µM	15.4 µM	2.28 µM	15.3 µM	1.54 µM	5.24 µM	1.56 µM	4.19 µM
O=C1c2ccccc2-c2c1c1ccc([N+](=O)[O-])cc1c(=O)n2CCCBr	> 100 µM	> 100 µM	> 100 µM	> 100 µM	> 100 µM	> 100 µM	3.43 µM	> 100 µM	> 100 µM	> 100 µM	> 100 µM	> 100 µM	> 100 µM	> 100 µM	0.2 µM	> 100 µM	> 100 µM	> 100 µM	> 100 µM	> 100 µM
CC(=O)NC1=C(OS(=O)(=O)c2ccc(C)cc2)CN(C)C1=O		7.09 µM		16.5 µM		21 µM		12 µM		> 42.7 µM		13.3 µM		20 µM		> 100 µM		20.9 µM		16.7 µM
CCCCNCC(=O)O[C@]1(CC)C(=O)OCc2c1cc1n(c2=O)Cc2cc3ccccc3nc2-1		0.314 µM		0.946 µM		> 40.5 µM		4.8 µM		> 93.8 µM		2.15 µM		> 100 µM		0.0355 µM		20.4 µM		1.32 µM
O=C(C1CCCCC1)[C@@H]1[C@]2(C(=O)NC3CCCCC32)[C@@H]2CCCN2[C@@]12C(=O)NC1CCC(Cl)CC12 (stereo partly drawn)	35.3 µM	176 µM	151 µM	319 µM	145 µM	284 µM	71.6 µM	208 µM	129 µM	278 µM	113 µM	301 µM	64.4 µM	199 µM	30.8 µM	124 µM	64.4 µM	218 µM	128 µM	259 µM
Cc1ccc(C(=O)Nc2ccc(CN3CCN(C)CC3)c(C(F)(F)F)c2)cc1C#Cc1cnc2cccnn12	0.422 µM and 0.44 µM	1.58 µM and 3.88 µM	0.428 µM and 0.903 µM	1.69 µM and 4.1 µM	0.342 µM and 1.16 µM	1.22 µM and 3.74 µM	0.235 µM and 0.464 µM	1.05 µM and 3.43 µM	0.367 µM and 0.742 µM	1.51 µM and 3.7 µM	0.224 µM and 0.53 µM	0.972 µM and 2.21 µM	0.3 µM and 0.469 µM	1.29 µM and 3.42 µM	0.447 µM and 0.383 µM	2.11 µM and 1.98 µM	0.171 µM and 0.479 µM	1.64 µM and 4.32 µM	0.423 µM and 0.712 µM	1.57 µM and 3.72 µM
CC(C)(C)c1n[nH]c(=S)n(/N=C/c2ccc(F)c(Oc3ccccc3)c2)c1=O	61.9 µM	> 100 µM	34.9 µM	> 100 µM	38.2 µM	> 100 µM	> 100 µM	> 100 µM	20.7 µM	> 100 µM	38.2 µM	> 100 µM	43.4 µM	> 100 µM	> 100 µM	> 100 µM	23.8 µM	96.9 µM	67.7 µM	> 100 µM
C[C@]12CC[C@H]3[C@@H](CCC4=CC(=O)CC[C@@H]43)[C@@H]1CC[C@@H]2OC(=O)CCc1ccccc1	2.41 µM	35.5 µM	23.9 µM	50.8 µM	44.1 µM	> 100 µM	19.3 µM	43.9 µM	16.8 µM	37 µM	19.6 µM	43.5 µM	18.2 µM	56.5 µM	11.2 µM	> 53.4 µM	18.8 µM	40.4 µM	15.6 µM	32.5 µM
